# Data taken from patent US9839629B2, “Inhibitors of the renal outer medullary potassium channel” (Merck Sharp & Dohme Corp., priority 2013, dated 2017).
# Target: T1, ROMK (Kir1.1) channel (Homo sapiens, UniProt P48048)
# T1 sequence (P48048 1-391): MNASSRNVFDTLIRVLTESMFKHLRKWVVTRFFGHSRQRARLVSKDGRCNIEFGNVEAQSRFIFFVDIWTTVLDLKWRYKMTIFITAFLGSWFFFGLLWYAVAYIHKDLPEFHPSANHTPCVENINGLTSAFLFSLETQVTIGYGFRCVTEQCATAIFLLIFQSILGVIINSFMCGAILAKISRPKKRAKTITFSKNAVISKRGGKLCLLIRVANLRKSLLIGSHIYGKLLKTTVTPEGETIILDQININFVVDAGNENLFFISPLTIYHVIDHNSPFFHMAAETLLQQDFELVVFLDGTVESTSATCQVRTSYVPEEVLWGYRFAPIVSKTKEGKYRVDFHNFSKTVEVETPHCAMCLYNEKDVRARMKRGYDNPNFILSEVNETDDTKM
# Assay: Thallium Flux Assay
# Type: cell-based
# Method: A Thallium Flux Assay was performed on each of the final product compounds in the Examples. When the final product of an Example was an HCl salt, the salt was run in the Assay. This assay has been described previously; see, e.g., PCT Published Application WO 2013/062900.
row,SMILES,IC50 [nM]
1,"Cc1c([C@@H](O)CN2CCC3(CC2)CCN(C2=C(Cl)C(=O)OC2)CC3)ccc2c1COC2=O [Example 40, (R)-5-(2-(9-(4-chloro-5-oxo-2,5-dihydrofuran-3-yl)-3,9-diazaspiro[5.5]undecan-3-yl)-1-hydroxyethyl)-4-methylisobenzofuran-1(3H)-one]",5
2,"Cc1nc(-n2cnnn2)ccc1[C@@H](O)CN1CCC2(CC1)CCN(C1=CC(=O)OC1)CC2 [Example 13, (R)-4-(9-(2-hydroxy-2-(2-methyl-6-(1H-tetrazol-1-yl)pyridin-3-yl)ethyl)-3,9-diazaspiro[5.5]undecan-3-yl)furan-2(5H)-one]",14
3,"CC1=C(N2CCC3(CCN(C[C@H](O)c4ccc(-n5cnnn5)cc4)CC3)CC2)COC1=O [Example 49, (R)-4-(9-(2-(4-(1H-tetrazol-1-yl)phenyl)-2-hydroxyethyl)-3,9-diazaspiro[5.5]undecan-3-yl)-3-methylfuran-2(5H)-one]",16
4,"O=C1C=C(N2CCC3(CCN(C(=O)Cc4cnc(-n5cnnn5)cn4)CC3)CC2)CO1 [Example 106, 4-(9-{[5-(1H-tetrazol-1-yl)pyrazin-2-yl]acetyl}-3,9-diazaspiro[5.5]undec-3-yl)furan-2(5H)-one]",379
5,"Cc1c(N2CCC3(CCN(C[C@H](O)c4ccc(-n5cnnn5)cn4)CC3)CC2)c(=O)c1=O [Example 87, (S)-3-(9-(2-(5-(1H-tetrazol-1-yl)pyridin-2-yl)-2-hydroxyethyl)-3,9-diazaspiro[5.5]undecan-3-yl)-4-methylcyclobut-3-ene-1,2-dione]",688
6,"Cc1c([C@@H](O)CN2CCC3(CC2)CCN(C2=C(C4CC4)C(=O)OC2)CC3)ccc2c1COC2=O [Example 44, (R)-5-(2-(9-(4-cyclopropyl-5-oxo-2,5-dihydrofuran-3-yl)-3,9-diazaspiro[5.5]undecan-3-yl)-1-hydroxyethyl)-4-methylisobenzofuran-1(3H)-one]",17
7,"Cc1nc(-n2cnnn2)ccc1[C@H](O)CN1CCC2(CC1)CCN(C1=CC(=O)OC1)CC2 [Example 14, (S)-4-(9-(2-hydroxy-2-(2-methyl-6-(1H-tetrazol-1-yl)pyridin-3-yl)ethyl)-3,9-diazaspiro[5.5]undecan-3-yl)furan-2(5H)-one]",24
8,"Cc1c([C@@H](O)CN2CCC3(CC2)CCN(c2c(C)c(=O)c2=O)CC3)ccc2c1COC2=O [Example 78, (R)-3-(9-(2-hydroxy-2-(4-methyl-1-oxo-1,3-dihydroisobenzofuran-5-yl)ethyl)-3,9-diazaspiro[5.5]undecan-3-yl)-4-methylcyclobut-3-ene-1,2-dione]",30
9,"Cc1cc(-n2cnnn2)ccc1[C@H](O)CN1CCC2(CC1)CCN(C1=CC(=O)OC1)CC2 [Example 25, (S)-4-(9-(2-hydroxy-2-(2-methyl-4-(1H-tetrazol-1-yl)phenyl)ethyl)-3,9-diazaspiro[5.5]undecan-3-yl)furan-2(5H)-one]",22
10,"CC1=C(N2CCC3(CCN(C[C@H](O)c4ccc(-n5cnnn5)nc4)CC3)CC2)COC1=O [Example 47, (R)-4-(9-(2-(6-(1H-tetrazol-1-yl)pyridin-3-yl)-2-hydroxyethyl)-3,9-diazaspiro[5.5]undecan-3-yl)-3-methylfuran-2(5H)-one]",13
11,"CC1=C(N2CCC3(CCN(C[C@@H](O)c4ccccc4-n4cnnn4)CC3)CC2)COC1=O [Example 69, (S)-4-(9-(2-(2-(1H-tetrazol-1-yl)phenyl)-2-hydroxyethyl)-3,9-diazaspiro[5.5]undecan-3-yl)-3-methylfuran-2(5H)-one]",634
12,"CC1=C(N2CCC3(CCN(C[C@H](O)c4ccnc(-n5cnnn5)c4)CC3)CC2)COC1=O [Example 61, (R)-4-(9-(2-(2-(1H-tetrazol-1-yl)pyridin-4-yl)-2-hydroxyethyl)-3,9-diazaspiro[5.5]undecan-3-yl)-3-methylfuran-2(5H)-one]",33
13,"CO[C@H]1CN(C2=C(C)C(=O)OC2)CCC12CCN(C[C@H](O)c1ccc3c(c1C)COC3=O)CC2 [Example 97, 5-{(1R)-1-hydroxy-2-[(7R)-7-methoxy-9-(4-methyl-5-oxo-2,5-dihydrofuran-3-yl)-3,9-diazaspiro[5.5]undec-3-yl]ethyl}-4-methyl-2-benzofuran-1(3H)-one]",42
14,"CO[C@@H](CN1CCC2(CC1)CCN(c1c(C)c(=O)c1=O)CC2)c1ccc2c(c1C)COC2=O [Example 4, (R)-3-(9-(2-methoxy-2-(4-methyl-1-oxo-1,3-dihydroisobenzofuran-5-yl)ethyl)-3,9-diazaspiro[5.5]undecan-3-yl)-4-methylcyclobut-3-ene-1,2-dione]",230
15,"CC1=C(N2CCC3(CCN(C[C@H](O)c4ccc5c(c4C)COC5=O)CC3)CC2)COC1=O [Example 7, (R)-5-(1-hydroxy-2-(9-(4-methyl-5-oxo-2,5-dihydrofuran-3-yl)-3,9-diazaspiro[5.5]undecan-3-yl)ethyl)-4-methylisobenzofuran-1(3H)-one]",13
16,"Cc1cc(-n2cnnn2)ccc1[C@@H](O)CN1CCC2(CC1)CCN(C1=CC(=O)OC1)CC2 [Example 24, (R)-4-(9-(2-hydroxy-2-(2-methyl-4-(1H-tetrazol-1-yl)phenyl)ethyl)-3,9-diazaspiro[5.5]undecan-3-yl)furan-2(5H)-one]",40
17,"Cc1nc(-n2cnnn2)ccc1[C@@H](O)CN1CCC2(CC1)CCN(C1=CC(=O)OC1)C(=O)O2 [Example 31, (R)-9-(2-hydroxy-2-(2-methyl-6-(1H-tetrazol-1-yl)pyridin-3-yl)ethyl)-3-(5-oxo-2,5-dihydrofuran-3-yl)-1-oxa-3,9-diazaspiro[5.5]undecan-2-one]",65
18,"CC1=C(N2CCC3(CCN(C[C@H](O)c4ccc(-n5cnnn5)nc4C)CC3)CC2=O)COC1=O [Example 29, (R)-9-(2-hydroxy-2-(2-methyl-6-(1H-tetrazol-1-yl)pyridin-3-yl)ethyl)-3-(4-methyl-5-oxo-2,5-dihydrofuran-3-yl)-3,9-diazaspiro[5.5]undecan-2-one]",330
19,"Cc1c([C@@H](O)CN2CCC3(CC2)CCN(C2=CC(=O)OC2)CC3)ccc2c1COC2=O [Example 8, (R)-5-(1-hydroxy-2-(9-(5-oxo-2,5-dihydrofuran-3-yl)-3,9-diazaspiro[5.5]undecan-3-yl)ethyl)-4-methylisobenzofuran-1(3H)-one]",49

# More lines, now with the values ahead:
row,IC50 [nM],SMILES
1,49,"Cc1c([C@@H](O)CN2CCC3(CC2)CCN(C2=CC(=O)OC2)C(C)C3)ccc2c1COC2=O (single isomer, unassigned) [Example 32]"
2,433,"Cc1c([C@@H](O)CN2CCC3(CC2)CCN(C2=CC(=O)OC2)C(=O)C3)ccc2c1COC2=O [Example 27, (R)-9-(2-hydroxy-2-(4-methyl-1-oxo-1,3-dihydroisobenzofuran-5-yl)ethyl)-3-(5-oxo-2,5-dihydrofuran-3-yl)-3,9-diazaspiro[5.5]undecan-2-one]"
3,185,"CC1=C(N2CCC3(CCN(C[C@@H](O)c4cc(-n5cnnn5)ccn4)CC3)CC2)COC1=O [Example 68, (R)-4-(9-(2-(4-(1H-tetrazol-1-yl)pyridin-2-yl)-2-hydroxyethyl)-3,9-diazaspiro[5.5]undecan-3-yl)-3-methylfuran-2(5H)-one]"
4,109,"O=C1C=C(N2CCC3(CCN(C(=O)Cc4ccc(-n5cnnn5)nc4)CC3)CC2)CO1 [Example 99, 4-(9-(2-(6-(1H-tetrazol-1-yl)pyridin-3-yl)acetyl)-3,9-diazaspiro[5.5]undecan-3-yl)furan-2(5H)-one]"
5,42,"Cc1c([C@@H](O)CN2CCC3(CC2)CCN(C2=CC(=O)OC2)C(C)C3)ccc2c1COC2=O (single isomer, unassigned) [Example 33]"
6,179,"Cc1cc(-n2cnnn2)ccc1[C@@H](O)CN1CCC2(CC1)CCN(C1=CC(=O)CC1)CC2 [Example 73, (R)-3-(9-(2-hydroxy-2-(2-methyl-4-(1H-tetrazol-1-yl)phenyl)ethyl)-3,9-diazaspiro[5.5]undecan-3-yl)cyclopent-2-enone]"
7,439,"Cc1c([C@@H](O)CN2CCC3(CC2)CCN(C2=CC(=O)CC2)CC3)ccc2c1COC2=O [Example 72, (R)-5-(1-hydroxy-2-(9-(3-oxocyclopent-1-en-1-yl)-3,9-diazaspiro[5.5]undecan-3-yl)ethyl)-4-methylisobenzofuran-1(3H)-one]"
8,639,"CC1=C(N2CCC3(CCN(C[C@H](O)c4ccc5c(c4C)COC5=O)CC3)[C@@H](O)C2)COC1=O [Example 94, 5-{(1R)-1-hydroxy-2-[(7R)-7-hydroxy-9-(4-methyl-5-oxo-2,5-dihydrofuran-3-yl)-3,9-diazaspiro[5.5]undec-3-yl]ethyl}-4-methyl-2-benzofuran-1(3H)-one]"
9,38,"CC1=C(N2CCC3(CCN(C[C@@H](O)c4ccc(-n5cnnn5)nc4C)CC3)CC2)COC1=O [Example 46, (S)-4-(9-(2-hydroxy-2-(2-methyl-6-(1H-tetrazol-1-yl)pyridin-3-yl)ethyl)-3,9-diazaspiro[5.5]undecan-3-yl)-3-methylfuran-2(5H)-one]"
10,140,"CC1=C(N2CCC3(CCN(C[C@H](O)c4ccc(-n5cnnn5)cc4C)CC3)CC2)CCC1=O [Example 77, (R)-3-(9-(2-hydroxy-2-(2-methyl-4-(1H-tetrazol-1-yl)phenyl)ethyl)-3,9-diazaspiro[5.5]undecan-3-yl)-2-methylcyclopent-2-enone]"
11,223,"Cc1c(N2CCC3(CCN(C[C@H](O)c4ccc5c(ccc6nnnn65)c4)CC3)CC2)c(=O)c1=O [Example 88, (R)-3-(9-(2-hydroxy-2-(tetrazolo[1,5-a]quinolin-7-yl)ethyl)-3,9-diazaspiro[5.5]undecan-3-yl)-4-methylcyclobut-3-ene-1,2-dione]"
